Tests used:
[1] = system: HepG2 cells; assay: Cell uptake of ^18F-CML and native CML in HepG2 cells; format: cell-based; settings: incubation 2 hours
Description: (§1) To compare the different bioactivities of CML and ^18F-CML, two cell lines were evaluated for their capacity to take up native CML and the fluorobenzoylated derivative ^18F-CML. RAW264.7 macrophages and HepG2 liver cells were cultured in DMEM/LOWGLUCOSE, supplemented with 10% fetal bovine serum (FBS), 4.0 mmol/L L-glutamine, 110 mg/L sodium pyruvate, 100 U/mL penicillin, and 100 mg/L streptomycin at 37°C and 5% CO2.
(§2) For ^18F-CML cell uptake studies, RAW264.7 cells and HepG2 cells were seeded into 24-well plates at a density of 4×10^5 cells per well. Radio-tracer ^18F-CML (0.5 µCi/well, 3 µmol/mL) was incubated in a 37°C water bath for 15, 30, 60, and 120 min. At each time point the cells were washed 3 times with phosphate-buffered saline (PBS). The supernatant, washing-up liquid (unbound activity) and the pellet (cell-bound activity) were transferred to new tubes. Triplicates of the counting tubes containing supernatant and cell pellet were counted individually using a gamma counter for 1 min. For the blocking experiment, the uptake was carried out in the presence of the non-radioactive CML(10 µmol/mL) and processed similarly as described above. The uptake (%) of radio-tracer into the cell was determined using a gamma counter according to the following equation: [drawing 1]
(§3) For CML cell uptake ratio studies, unaltered CML (10 µmol/mL) was added to RAW264.7 and HepG2 cell pellets individually. The total proteins of each cell line were initially extracted from the lysates of 4×10^5 cells. […] The supernatants were purified and detected usingby the method described by Drusch et al., which uses an RP-HPLC method with an ortho-phthaldialdehyde (OPA)-derivatisation and fluorescence detection suited for automation. The HPLC analysis method used a 250 mm×4.6 mm C18 column (GROM-SIL 100 ODS-0 AB, Herrenberg, Germany) and detected the fluorescence excitation at 340 nm and emission at 455 nm. The peak identification of CML was confirmed by the retention time and standard addition and was quantified using an external standard. The amount of CML was calculated and expressed as a percentage.

[2] = system: RAW264.7 cells; assay: Cell uptake of ^18F-CML and native CML in RAW264.7 cells; format: cell-based; settings: incubation 2 hours
Description: as §1, §2, §3

NC(CCCCNCC(=O)O)C(=O)O (stereo not shown) [CML, N^ε-carboxymethyl-lysine]
Uptake ratio of unaltered CML, amount less than ^18F-CML ([1]; P<0.01): 0.2%
Uptake of unaltered CML ([1]; n=3): 6.3 µg/mg of cell protein
Uptake ratio of unaltered CML, amount less than ^18F-CML ([2]; P<0.01): 0.3%
Uptake of unaltered CML ([2]; n=3): 8.2 µg/mg of cell protein

— publication PMC3591457, “Biodistribution and Elimination Study of Fluorine-18 Labeled N^ε-Carboxymethyl-Lysine following Intragastric and Intravenous Administration” (PLoS ONE, 2013)
